Assay: dissolution test of metal complexes in protic polar solvents
Format: physicochemical
Parameters: key to dissolution test, 7.5 g/L: a case where an undissolved remnant was present was evaluated as “X”; a case where a slight undissolved remnant was present was evaluated as “Δ”; a case of complete dissolution was evaluated as “ο”
Protocol: The metal complexes obtained in [1] were each dissolved in a protic polar solvent shown in Table 1 to produce a liquid material for constructing the electron transport layer of an organic electroluminescent element.
For example, Metal complex L101-Cs was dissolved in 1-heptanol to prepare alcohol solutions of 7.5 g/L to 15 g/L.
In Table 1, a case where an undissolved remnant was present was evaluated as “X”, a case where a slight undissolved remnant was present was evaluated as “Δ”, and a case of complete dissolution was evaluated as “ο”.

Structure (SMILES) | dissolution test, 7.5 g/L (1-Heptanol) | dissolution test, 15 g/L (1-Heptanol) | further results
O=P(c1ccccc1)(c1ccc2ccc3cccnc3c2n1)c1ccc(O)c2c1oc1cccnc12 (stereo not drawn) [L302-Rb] | ○ | ○ | 
Oc1cccc2c1nc(-c1ccccc1)n2-c1cccc(-c2ccc3ccc4cccnc4c3n2)c1 [L101-Rb] | ○ |  | 
O=P(c1ccccc1)(c1ccccc1)c1ccc2ccc3ccc(-c4ccc(O)c5c4oc4cccnc45)nc3c2n1 [L303-Cs] | ○ |  | 
O=P(c1ccccc1)(c1ccc2ccc3cccnc3c2n1)c1ccc(O)c2c1oc1cccnc12 (stereo not drawn) [L302-Cs] | ○ | ○ | 
O=P(c1ccccc1)(c1ccc2ccc3cccnc3c2n1)c1ccc(O)c2c1oc1cccnc12 (stereo not drawn) [L302-Li] | ○ | ○ | 
Oc1cccc2c1nc(-c1ccccc1)n2-c1ccc2ccc3cccnc3c2n1 [L102-Cs] | ○ |  | 
Oc1cccc2c1nc(-c1ccccc1)n2-c1cccc(-c2ccc3ccc4cccnc4c3n2)c1 [L101-Cs] | ○ |  | 
Oc1cccc2oc3cc(-c4ccc5ccc6cccnc6c5n4)cnc3c12 [L301-Cs] | Δ |  | dissolution test, 5 g/L (1-Heptanol, 5 g/L): ○; dissolution test, 7.5 g/L (2-Methoxyethanol): ○; dissolution test, 15 g/L (2-Methoxyethanol): ○
Oc1ccc(-c2ccc3ccc4cccnc4c3n2)c2c1nc(-c1ccccc1)n2-c1ccccc1 [L103-Cs] | ○ |  | 
